Test results taken from ChEMBL document CHEMBL1142870, “Antitumor potential of crown ethers: structure-activity relationships, cell cycle disturbances, and cell death studies of a series of ionophores” (J Med Chem, 2007).
pIC50: −log10 of the molar value.

Tests used:
HeLa = assay: Antiproliferative activity against HeLa cells after 72 hrs by MTT assay; format: functional, cell-based; conditions: Homo sapiens
SW-620 = assay: Antiproliferative activity against SW620 cells after 72 hrs by MTT assay; format: functional, cell-based; conditions: Homo sapiens, SW-620, 72 h
MCF7 = assay: Antiproliferative activity against MCF7 cells after 72 hrs by MTT assay; format: functional, cell-based; conditions: Homo sapiens, MCF7, 72 h
NCI-H460 = assay: Antiproliferative activity against H460 cells after 72 hrs by MTT assay; format: functional, cell-based; conditions: Homo sapiens, NCI-H460, 72 h
MIA PaCa-2 [1] = assay: Antiproliferative activity against MiaPaCa2 cells after 72 hrs by MTT assay; format: functional, cell-based; conditions: Homo sapiens, MIA PaCa-2, 72 h
MIA PaCa-2 [2] = assay: Cell cycle arrest at MiaPaCa2 cells by accumulation at S phase at 10 nM after 36 hrs; format: functional, Homo sapiens
MIA PaCa-2 [3] = assay: Cell cycle arrest in MiaPaCa2 cells by accumulation at G1/G0 phase at 10 nM after 36 hrs; format: functional, Homo sapiens
MIA PaCa-2 [4] = assay: Cell cycle arrest at MiaPaCa2 cells by accumulation at G2/M phase at 10 nM after 24 hrs; format: functional, Homo sapiens
MIA PaCa-2 [5] = assay: Cell cycle arrest in MiaPaCa2 cells by accumulation at SubG1 phase at 10 nM after 36 hrs; format: functional, Homo sapiens
MIA PaCa-2 [6] = assay: Cell cycle arrest in MiaPaCa2 cells by accumulation at G1/G0 phase at 10 nM after 24 hrs; format: functional, Homo sapiens
MIA PaCa-2 [7] = assay: Cell cycle arrest in MiaPaCa2 cells by accumulation at G1/G0 phase at 10 nM after 48 hrs; format: functional, Homo sapiens
MIA PaCa-2 [8] = assay: Cell cycle arrest at MiaPaCa2 cells by accumulation at G2/M phase at 10 nM after 48 hrs; format: functional, Homo sapiens
MIA PaCa-2 [9] = assay: Cell cycle arrest in MiaPaCa2 cells by accumulation at SubG1 phase at 10 nM after 24 hrs; format: functional, Homo sapiens
MIA PaCa-2 [10] = assay: Cell cycle arrest in MiaPaCa2 cells by accumulation at G1 phase at 10 nM; format: functional, cell-based; conditions: Homo sapiens, TDE = time-dependent effect
MIA PaCa-2 [11] = assay: Cell cycle arrest at MiaPaCa2 cells by accumulation at G2/M phase at 10 nM after 36 hrs; format: functional, Homo sapiens
MIA PaCa-2 [12] = assay: Cell cycle arrest at MiaPaCa2 cells by accumulation at S phase at 10 nM after 24 hrs; format: functional, Homo sapiens
MIA PaCa-2 [13] = assay: Cell cycle arrest at MiaPaCa2 cells by accumulation at S phase at 10 nM after 48 hrs; format: functional, Homo sapiens
MIA PaCa-2 [14] = assay: Cell cycle arrest in MiaPaCa2 cells by accumulation at SubG1 phase at 10 nM after 48 hrs; format: functional, Homo sapiens

O=C(NCC(=O)N1CCOCCOCCN(C(=O)CNC(=O)OCc2ccccc2)CCOCCOCC1)OCc1ccccc1
pIC50 (HeLa): 4.43 | pIC50 (SW-620): 4.40 | pIC50 (MCF7): 4.36 | pIC50 (NCI-H460): < 4.00 | pIC50 (MIA PaCa-2 [1]): 4.15

c1ccc2c(c1)OCCOCCOCCOc1ccccc1OCCOCCOCCO2
pIC50 (HeLa): 4.68 | pIC50 (SW-620): 4.14 | pIC50 (MCF7): < 4.00 | pIC50 (NCI-H460): 4.62 | pIC50 (MIA PaCa-2 [1]): 4.49

c1ccc(CN2CCOCCOCCOCCOCC2)cc1
pIC50 (HeLa): < 4.00 | pIC50 (SW-620): < 4.00 | pIC50 (MCF7): < 4.00 | pIC50 (NCI-H460): < 4.00 | pIC50 (MIA PaCa-2 [1]): < 4.00

c1ccc(CN2CCOCCOCCN(Cc3ccccc3)CCOCCOCC2)cc1
pIC50 (HeLa): 4.85 | pIC50 (SW-620): 5.22 | pIC50 (MCF7): 4.60 | pIC50 (NCI-H460): 4.60 | pIC50 (MIA PaCa-2 [1]): 4.64

COC(=O)[C@H](NC(=O)CN1CCOCCOCCN(CC(=O)N[C@@H](C(=O)OC)c2ccccc2)CCOCCOCC1)c1ccccc1
pIC50 (HeLa): < 4.00 | pIC50 (SW-620): ≤ 4.00 | pIC50 (MCF7): < 4.00 | pIC50 (NCI-H460): < 4.00 | pIC50 (MIA PaCa-2 [1]): < 4.00

CC(C)(C)c1ccc(O)c(O)c1
pIC50 (HeLa): 4.62 | pIC50 (SW-620): 4.66 | pIC50 (MCF7): 4.64 | pIC50 (NCI-H460): 4.66 | pIC50 (MIA PaCa-2 [1]): 4.70

c1ccc2c(c1)OCCOCCOCCOCCOc1ccccc1OCCOCCOCCOCCO2
pIC50 (HeLa): 4.96 | pIC50 (SW-620): 4.77 | pIC50 (MCF7): 4.52 | pIC50 (NCI-H460): 5.05 | pIC50 (MIA PaCa-2 [1]): 5.15

CC(C)(C)c1cc(O)c(OCCOCCOc2c(O)cc(C(C)(C)C)cc2C(C)(C)C)c(C(C)(C)C)c1
pIC50 (HeLa): 4.96 | pIC50 (SW-620): 4.72 | pIC50 (MCF7): 4.54 | pIC50 (NCI-H460): 5.10 | pIC50 (MIA PaCa-2 [1]): 4.74

CC(C)[C@@H]1NC(=O)[C@H](C)OC(=O)[C@@H](C(C)C)NC(=O)[C@@H](C(C)C)OC(=O)[C@H](C(C)C)NC(=O)[C@H](C)OC(=O)[C@@H](C(C)C)NC(=O)[C@@H](C(C)C)OC(=O)[C@H](C(C)C)NC(=O)[C@H](C)OC(=O)[C@@H](C(C)C)NC(=O)[C@@H](C(C)C)OC1=O [VALINOMYCIN]
Activity (MIA PaCa-2 [2]): 12% | Activity (MIA PaCa-2 [3]): 63% | Activity (MIA PaCa-2 [4]): 24% | pIC50 (HeLa): 9.00 | pIC50 (SW-620): 10.00 | Activity (MIA PaCa-2 [5]): 42% | Activity (MIA PaCa-2 [6]): 60% | Activity (MIA PaCa-2 [7]): 62% | Activity (MIA PaCa-2 [8]): 18% | Activity (MIA PaCa-2 [9]): 35% | Activity (MIA PaCa-2 [10]): tde | pIC50 (MCF7): 6.30 | pIC50 (NCI-H460): 9.00 | Activity (MIA PaCa-2 [11]): 23% | Activity (MIA PaCa-2 [12]): 24% | pIC50 (MIA PaCa-2 [1]): 9.00 | Activity (MIA PaCa-2 [13]): 19% | Activity (MIA PaCa-2 [14]): 49%

C1CCC2OCCOCCOC3CCCCC3OCCOCCOC2C1 (stereo not drawn) [ICOSAHYDRODIBENZO[B,K][1,4,7,10,13,16]HEXAOXACYCLOOCTADECINE]
pIC50 (HeLa): 4.60 | pIC50 (SW-620): 5.15 | pIC50 (MCF7): 4.44 | pIC50 (NCI-H460): 4.80 | pIC50 (MIA PaCa-2 [1]): 4.80

c1ccc2c(c1)OCCOCCOc1ccccc1OCCOCCO2
pIC50 (HeLa): 4.77 | pIC50 (SW-620): 4.77 | pIC50 (MCF7): 4.31 | pIC50 (NCI-H460): 4.55 | pIC50 (MIA PaCa-2 [1]): 4.55

CC(C)(C)c1cc2c(c(C(C)(C)C)c1)OCCOCCOc1c(cc(C(C)(C)C)cc1C(C)(C)C)OCCOCCO2
pIC50 (HeLa): 5.00 | pIC50 (SW-620): 4.72 | pIC50 (MCF7): 5.10 | pIC50 (NCI-H460): 4.72 | pIC50 (MIA PaCa-2 [1]): 4.82

OCCN(CCO)Cc1ccccc1
pIC50 (HeLa): < 4.00 | pIC50 (SW-620): < 4.00 | pIC50 (MCF7): < 4.00 | pIC50 (NCI-H460): < 4.00 | pIC50 (MIA PaCa-2 [1]): < 4.00

c1ccc(CNCCOCCOCCNCc2ccccc2)cc1
pIC50 (HeLa): 4.62 | pIC50 (SW-620): 4.41 | pIC50 (MCF7): < 4.00 | pIC50 (NCI-H460): 4.51 | pIC50 (MIA PaCa-2 [1]): < 4.00
